Test results reported in patent publication US10329270B2, “Heteroaryl compounds as BTK inhibitors and uses thereof” (Merck Patent GmbH, priority 2013, dated 2019).

Biological target: T1, full-length human BTK (Homo sapiens, UniProt Q06187)
T1 construct: 2.5× stocks of full-length human BTK (08-080); purchased CarnaBio USA, Inc., Natick, Mass; 08-080
Assay: Assay A: BTK IC50 Enzyme Assay (microfluidic off-chip mobility shift kinase assay)
Assay type: biochemical
Conditions: full-length human BTK, kinKDR peptide substrate, incubated 90 min at 27 C; read-out: Assay A (Time Dependent BTK Enzyme Assay IC50)
Description: Assay A: BTK IC50 Enzyme Assay
The following describes a microfluidic, off-chip mobility shift kinase assay used to measure inherent potency of compounds against BTK enzyme. Compounds described by embodiments of the present invention were assayed using this protocol and the data from the same is recorded in Table 2 within the column labeled: “Time Dependent BTK Enzyme Assay IC50”.
Stopped reactions were monitored at −2 PSI, −3000 V/−700 V in a LabChip 3000 plate reader from Caliper Life Sciences, a PerkinElmer Company (Hopkinton, Mass.), and the activity was measured by off-chip mobility shift assay measuring the charge/mass difference between substrate and product resulting from peptide phosphorilation. IC50 and efficacy were determined by plotting log [Inhibitor] vs. % Activity in GeneData Screener (Basel, Switzerland). […] I<1 uM and II>1 uM.

T1 sequence (Q06187 whole entry): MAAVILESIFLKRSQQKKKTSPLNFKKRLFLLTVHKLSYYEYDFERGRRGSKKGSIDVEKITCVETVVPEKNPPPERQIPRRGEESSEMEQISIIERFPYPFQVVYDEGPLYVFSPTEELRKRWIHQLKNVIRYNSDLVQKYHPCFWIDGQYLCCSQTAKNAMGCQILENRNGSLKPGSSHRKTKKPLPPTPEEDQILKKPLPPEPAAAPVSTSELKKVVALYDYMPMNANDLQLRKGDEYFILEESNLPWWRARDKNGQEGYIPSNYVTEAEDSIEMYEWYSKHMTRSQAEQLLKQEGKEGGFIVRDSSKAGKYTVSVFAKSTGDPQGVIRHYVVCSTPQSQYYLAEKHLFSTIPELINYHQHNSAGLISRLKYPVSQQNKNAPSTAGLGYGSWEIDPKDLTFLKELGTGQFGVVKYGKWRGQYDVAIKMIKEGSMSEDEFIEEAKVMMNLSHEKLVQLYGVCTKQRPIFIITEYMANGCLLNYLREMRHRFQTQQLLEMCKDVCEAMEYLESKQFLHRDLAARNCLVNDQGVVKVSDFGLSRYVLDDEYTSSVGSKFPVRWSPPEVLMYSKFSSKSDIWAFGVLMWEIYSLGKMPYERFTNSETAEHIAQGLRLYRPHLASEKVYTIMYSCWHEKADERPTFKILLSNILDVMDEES

## C=CC(=O)NCc1ccc(-c2ccc(C(N)=O)c(Oc3ccc(Oc4ccccc4)cc3)n2)s1 [Compound 160, 6-(5-(acrylamidomethyl)thiophen-2-yl)-2-(4-phenoxyphenoxy)nicotinamide]
  IC50: > 5000 nM

## C=CC(=O)N1CCC(c2cc(Oc3ccc(C(=O)Nc4ccccc4)cc3)c(C(N)=O)cn2)C1 (stereo not shown) [Compound 117]
  IC50: 1000 to 5000 nM

## C=CC(=O)N1CCC(c2cc(Oc3ccc(Oc4ccc(C)cc4)cc3)c(C(N)=O)cn2)C1 (stereo not shown) [Compound 110, 6-(1-acryloylpyrrolidin-3-yl)-4-(4-(p-tolyloxy)phenoxy)nicotinamide]
  IC50: < 100 nM

## C=CC(=O)N[C@H]1CCN(c2ncc(C(N)=O)c(N)n2)C1 [Compound 142, 2-((S)-3-Acryloylamino-pyrrolidin-1-yl)-4-amino-pyrimidine-5-carboxylic acid amide]
  IC50: 100 to 1000 nM

## C=CC(=O)N[C@H]1CCN(c2ccc(C(N)=O)c(Nc3ccc(F)cc3)n2)C1 [Compound 48, 6-((S)-3-Acryloylamino-pyrrolidin-1-yl)-2-(4-fluoro-phenylamino)-nicotinamide]
  IC50: < 100 nM

## C=CC(=O)N[C@H]1CCN(c2ccc(C(N)=O)c(NCCN3CCOCC3)n2)C1 [Compound 166, 6-((S)-3-Acryloylamino-pyrrolidin-1-yl)-2-(2-morpholin-4-yl-ethylamino)-nicotinamide]
  IC50: > 5000 nM

## C/C=C/C(=O)N1CCCC(Nc2cnc(Oc3ccc(Oc4ccccc4)cc3)c(C(N)=O)c2)C1 (stereo not shown) [Compound 215, 5-[1-((E)-But-2-enoyl)-piperidin-3-ylamino]-2-(4-phenoxy-phenoxy)-nicotinamide]
  IC50: > 5000 nM

## C=CC(=O)N1CCC(c2cc(Oc3ccc(NC(=O)c4ccccc4)cc3)c(C(N)=O)cn2)C1 (stereo not shown) [Compound 184, 6-(1-Acryloylpyrrolidin-3-yl)-4-(4-benzamidophenoxy)nicotinamide]
  IC50: 1000 to 5000 nM

## C=CC(=O)NC1CC2(C1)CC(Nc1ncc(C(N)=O)c(Oc3ccc(Oc4ccccc4)cc3)n1)C2 (stereo not shown) [Compound 195, 2-((6-acrylamidospiro[3.3]heptan-2-yl)amino)-4-(4-phenoxyphenoxy)pyrimidine-5-carboxamide]
  IC50: 1000 to 5000 nM

## C=CC(=O)N1CC=C(c2ccc(C(N)=O)c(Nc3ccc(C(=O)N4CCCCC4)cc3)n2)CC1 [Compound 28, 1′-Acryloyl-6-[4-(piperidine-1-carbonyl)-phenylamino]-1′,2′,3′,6′-tetrahydro-[2,4′]bipyridinyl-5-carboxylic acid amide]
  IC50: < 100 nM

## C=CC(=O)NC1CCN(c2cnc(Oc3ccc(Oc4ccccc4)cc3)c(C(N)=O)c2)CC1 [Compound 197]
  IC50: 100 to 1000 nM

## C/C=C/C(=O)NC1CCCN(c2cnc(Oc3ccc(Oc4cccc(F)c4)cc3)c(C(N)=O)c2)C1 (stereo not shown) [Compound 222, 3-((E)-But-2-enoylamino)-6′-[4-(3-fluoro-phenoxy)-phenoxy]-3,4,5,6-tetrahydro-2H-[1,3′]bipyridinyl-5′-carboxylic acid amide]
  IC50: > 5000 nM

## C=CC(=O)N[C@H]1CCN(c2ccc(C(N)=O)c(Nc3ccc(C(=O)N4CCOCC4)cc3)n2)C1 [Compound 35, 6-((S)-3-Acryloylamino-pyrrolidin-1-yl)-2-[4-(morpholine-4-carbonyl)-phenylamino]-nicotinamide]
  IC50: < 100 nM

## C=CC(=O)N[C@H]1CCN(c2ccc(C(N)=O)c(Oc3ccc(Oc4ccc(C)cc4)cc3)n2)C1 [Compound 85, (S)-6-(3-acrylamidopyrrolidin-1-yl)-2-(4-(p-tolyloxy)phenoxy)nicotinamide]
  IC50: 100 to 1000 nM

## C=CC(=O)N1C[C@@H]2C[C@H]1CN2c1ccc(C(N)=O)c(Oc2ccc(Oc3ccc(F)cc3F)cc2)n1 [Compound 66, 6-((1S,4S)-5-Acryloyl-2,5-diaza-bicyclo[2.2.1]hept-2-yl)-2-[4-(2,4-difluoro-phenoxy)-phenoxy]-nicotinamide]
  IC50: < 100 nM

## C/C=C/C(=O)NC1CCN(c2cnc(Oc3ccc(Oc4ccccc4)cc3)c(C(N)=O)c2)CC1 [Compound 200, 4-((E)-But-2-enoylamino)-6′-(4-phenoxy-phenoxy)-3,4,5,6-tetrahydro-2H-[1,3′]bipyridinyl-5′-carboxylic acid amide]
  IC50: > 5000 nM

## N#CN1CCCC(Nc2cnc(Oc3ccc(Oc4ccccc4)cc3)c(C(N)=O)c2)C1 (stereo not shown) [Compound 247, 5-[(1-cyanopiperidin-3-yl)amino]-2-(4-phenoxyphenoxy)pyridine-3-carboxamide]
  IC50: 1000 to 5000 nM

## N#C/C(=C\C1CC1)C(=O)N1C[C@@H]2C[C@H]1CN2c1ncc(C(N)=O)c(Oc2ccc(Oc3ccccc3)cc2)n1 [Compound 210, 2-((1S,4S)-5-((E)-2-cyano-3-cyclopropylacryloyl)-2,5-diazabicyclo[2.2.1]heptan-2-yl)-4-(4-phenoxyphenoxy)pyrimidine-5-carboxamide]
  IC50: 1000 to 5000 nM

## N#CN1CC2(CC(Nc3ncc(C(N)=O)c(Oc4ccc(Oc5ccccc5)cc4)n3)C2)C1 [Compound 242, 2-[(2-cyano-2-azaspiro[3.3]heptan-6-yl]amino)-4-(4-phenoxyphenoxy)pyrimidine-5-carboxamide]
  IC50: > 5000 nM

## C/C=C/C(=O)N1CCC(Nc2cnc(Oc3ccc(Oc4cccc(F)c4)cc3)c(C(N)=O)c2)C1 (stereo not shown) [Compound 229, 5-[1-((E)-But-2-enoyl)-pyrrolidin-3-ylamino]-2-[4-(3-fluoro-phenoxy)-phenoxy]-nicotinamide]
  IC50: 1000 to 5000 nM

## C=CC(=O)NCc1ccc(-c2ccc(C(N)=O)c(Oc3ccc(Oc4ccccc4)cc3)n2)o1 [Compound 161, 6-(5-(acrylamidomethyl)furan-2-yl)-2-(4-phenoxyphenoxy)nicotinamide]
  IC50: > 5000 nM

## C=CC(=O)N1CC2(CC(Nc3ncc(C(N)=O)c(Oc4ccc(Oc5ccccc5)cc4)n3)C2)C1 [Compound 183, 2-((2-acryloyl-2-azaspiro[3.3]heptan-6-yl)amino)-4-(4-phenoxyphenoxy)pyrimidine-5-carboxamide]
  IC50: 100 to 1000 nM

## C=CC(=O)N1CCC(c2cnc(C(N)=O)nc2)C1 (stereo not shown) [Compound 155]
  IC50: > 5000 nM

## C=CC(=O)N[C@H]1CCN(c2nc(Nc3ccc(NC(=O)C(C)(C)C)cc3)ccc2C(N)=O)C1 [Compound 156, 2-((S)-3-Acryloylamino-pyrrolidin-1-yl)-6-[4-(2,2-dimethyl-propionylamino)-phenylamino]-nicotinamide]
  IC50: < 100 nM

## C=CC(=O)N[C@@H]1CCCN(c2ccc(C(N)=O)c(Nc3ccc(CCN4CCCC4)cc3)n2)C1 [Compound 56, (R)-3-Acryloylamino-6′-[4-(2-pyrrolidin-1-yl-ethyl)-phenylamino]-3,4,5,6-tetrahydro-2H-[1,2′]bipyridinyl-5′-carboxylic acid amide]
  IC50: < 100 nM

## C=CC(=O)N1CCC(c2ccc(C(N)=O)c(Oc3ccc(Oc4cccc(C#N)c4)cc3)n2)C1 (stereo not shown) [Compound 185, 6-(1-Acryloylpyrrolidin-3-yl)-2-(4-(3-cyanophenoxy)phenoxy)nicotinamide]
  IC50: < 100 nM

## C/C=C/C(=O)NC1CCCN(c2cnc(Oc3ccc(Oc4ccccc4)cc3)c(C(N)=O)c2)C1 (stereo not shown) [Compound 213, 3-((E)-But-2-enoylamino)-6′-(4-phenoxy-phenoxy)-3,4,5,6-tetrahydro-2H-[1,3′]bipyridinyl-5′-carboxylic acid amide]
  IC50: > 5000 nM

## N#CN1CCC[C@@H](c2cnc(Oc3ccc(Oc4ccccc4)cc3)c(C(N)=O)c2)C1 [Compound 240, (S)-5-(1-cyanopiperidin-3-yl)-2-(4-phenoxyphenoxy)nicotinamide]
  IC50: 100 to 1000 nM

## C=CC(=O)N1CC2CCC1CN2c1ncc(C(N)=O)c(Oc2ccc(Oc3ccccc3)cc2)n1 (stereo not shown) [Compound 225, 2-(5-acryloyl-2,5-diazabicyclo[2.2.2]octan-2-yl)-4-(4-phenoxyphenoxy)pyrimidine-5-carboxamide]
  IC50: < 100 nM

## C=CC(=O)N1CC=C(c2ccc(C(N)=O)c(Nc3ccc(OC4CCN(C)CC4)cc3)n2)CC1 [Compound 13, 1′-Acryloyl-6-[4-(1-methyl-piperidin-4-yloxy)-phenylamino]-1′,2′,3′,6′-tetrahydro-[2,4′]bipyridinyl-5-carboxylic acid amide]
  IC50: < 100 nM

## C=CC(=O)N1C2CCC1CC(c1ccc(C(N)=O)c(Oc3ccc(Oc4ccccc4)cc3)n1)C2 (stereo not shown) [Compound 71, 6-(8-Acryloyl-8-aza-bicyclo[3.2.1]oct-3-yl)-2-(4-phenoxy-phenoxy)-nicotinamide]
  IC50: < 100 nM

## C=CC(=O)N1CCC(Nc2cnc(Oc3ccc(Oc4ccccc4)cc3)c(C(N)=O)c2)C1 (stereo not shown) [Compound 201, 5-(1-Acryloyl-pyrrolidin-3-ylamino)-2-(4-phenoxy-phenoxy)-nicotinamide]
  IC50: < 100 nM

## C=CC(=O)N1CCN(c2ncc(C(N)=O)c(Oc3ccc(Oc4ccccc4)cc3)n2)C(C)(C)C1 [Compound 151]
  IC50: 100 to 1000 nM

## C=CC(=O)N[C@H]1C[C@@H](Nc2ncc(C(N)=O)c(N)n2)C1 [Compound 143, 2-(3-Acryloylamino-cyclobutylamino)-4-amino-pyrimidine-5-carboxylic acid amide]
  IC50: 100 to 1000 nM

## C=CC(=O)N[C@H]1CCN(c2nc(Cl)ccc2C(N)=O)C1 [Compound 163, 2-((S)-3-Acryloylamino-pyrrolidin-1-yl)-6-chloro-nicotinamide]
  IC50: > 5000 nM

## C=CC(=O)N1CCC=C(c2cnc(Oc3ccc(Oc4ccccc4)cc3)c(C(N)=O)c2)C1 [Compound 123, 1′-Acryloyl-6-(4-phenoxy-phenoxy)-1′,2′,5′,6′-tetrahydro-[3,3′]bipyridinyl-5-carboxylic acid amide]
  IC50: < 100 nM

## C=CC(=O)N1CCC(c2ccc(C(N)=O)c(Oc3ccc(NC(=O)c4ccccc4)cc3)n2)C1 (stereo not shown) [Compound 99, 6-(1-acryloylpyrrolidin-3-yl)-2-(4-benzamidophenoxy)nicotinamide]
  IC50: 1000 to 5000 nM
